Laboratory results reported in PMC5122387 (2016).

Experiments:
Assay in all cases: Dox fluorescence quenching
[1] = system: MUC1 aptamer (Apt) (DNA, aptamer) GCAGTTGATCCTTTGGATACCCTGG; conditions: not stated; 3 nM Dox; complete quenching at DNA:Dox molar ratio 1; buffer not stated
[2] = system: Apt-Td (aptamer-tetrahedron complex) (DNA, other) AGGAAGAGAGAAGGAAGGGAATTTTTACATTCCTAAGTCTGAAACATTACAGCTTGCTACACGAGAAGAGCCGCCATAGTA/TATCACCAGGCAGTTGACAGTGTAGCAAGCTGTAATAGATGCGAGGGTCCAATAC/TCAACTGCCTGGTGATAAAACGACACTACGTGGGAATCTACTATGGCGGCTCTTC/TTCAGACTTAGGAATGTGCTTCCCACGTAGTGTCGTTTGTATTGGACCCTCGCAT/TTCCCTTCCTTCTCTCTTCCTCTCTCGCAGTTGATCCTTTGGATACCCTG; conditions: not stated for assay; assembled in 50 mM MgCl2; 3 nM Dox; complete quenching at DNA:Dox molar ratio 0.04; assembled in 20 mM Tris-HCl, pH 8.0
[3] = system: DNA tetrahedron (Td) (DNA, other) ACATTCCTAAGTCTGAAACATTACAGCTTGCTACACGAGAAGAGCCGCCATAGTA/TATCACCAGGCAGTTGACAGTGTAGCAAGCTGTAATAGATGCGAGGGTCCAATAC/TCAACTGCCTGGTGATAAAACGACACTACGTGGGAATCTACTATGGCGGCTCTTC/TTCAGACTTAGGAATGTGCTTCCCACGTAGTGTCGTTTGTATTGGACCCTCGCAT; conditions: not stated for assay; assembled in 50 mM MgCl2; 3 nM Dox; complete quenching at DNA:Dox molar ratio 0.05; Td assembled in 20 mM Tris-HCl, pH 8.0

Measured: binding

COc1cccc2c1C(=O)c1c(O)c3c(c(O)c1C2=O)C[C@@](O)(C(=O)CO)C[C@@H]3O[C@H]1C[C@H](N)[C@H](O)[C@H](C)O1
yes: all assays above
